Experimental data as given in article PMC3460366, “Synthesis and Antibacterial Evaluation of a New Series of N-Alkyl-2-alkynyl/(E)-alkenyl-4-(1H)-quinolones” (Molecules, 2012).
In brackets after ≈: the same amount, converted by molar mass. Several values for one entry are separate records, joined by “and”; a condition that tells them apart may be missing. Identical values can stand only once. Like-named read-outs stand apart in the source and are kept apart here.

Experiments:
[1] = target: T1, M. tuberculosis MurE ligase (Mycobacterium tuberculosis, UniProt P9WJL3); design: method as in PMID 21622974; conditions: positive control; read-out: IC50 Mtb MurE; cited from earlier work
T1 construct: made in house; host or cells: E. coli BL21(DE3)pLysS
T1 sequence (P9WJL3 whole entry): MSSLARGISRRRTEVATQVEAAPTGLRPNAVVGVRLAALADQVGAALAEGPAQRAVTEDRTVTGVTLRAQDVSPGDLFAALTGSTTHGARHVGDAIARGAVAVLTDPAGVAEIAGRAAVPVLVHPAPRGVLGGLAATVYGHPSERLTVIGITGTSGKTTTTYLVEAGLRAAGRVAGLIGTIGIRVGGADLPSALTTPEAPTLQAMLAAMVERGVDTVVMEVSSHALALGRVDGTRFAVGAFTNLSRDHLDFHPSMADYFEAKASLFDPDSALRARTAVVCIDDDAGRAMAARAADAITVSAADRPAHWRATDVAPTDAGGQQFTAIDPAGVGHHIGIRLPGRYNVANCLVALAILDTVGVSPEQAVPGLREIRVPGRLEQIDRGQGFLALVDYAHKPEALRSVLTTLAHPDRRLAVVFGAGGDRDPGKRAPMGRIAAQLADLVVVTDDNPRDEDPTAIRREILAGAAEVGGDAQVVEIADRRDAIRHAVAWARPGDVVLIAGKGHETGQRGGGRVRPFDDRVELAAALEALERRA

[2] = test system: human diploid embryonic lung cell line MRC-5; assay: XTT cytotoxicity assay on MRC-5 cells; type: cell-based; conditions: for Metabolic active MRC-5 cells (%): XTT; for toxicity to MRC-5 cell line (in words): at / up to 100 µM
Method: In order to assess the cytotoxicity of these novel quinolone derivatives, the effect on the viability of a human lung fibroblast cell line MRC-5, was measured using XTT proliferation assay. […] In addition, the position of the triple bond in the side chain seems to have a significant influence on cytotoxcity which is increased in compounds with a triple bond more distant to the quinolone nucleus. This can be concluded by comparing results of 8l, 8n, 8p, and 8r having similar antimycobacterial activity on M. smegmatis but different cytotoxcity depending on triple bond position.
The cytotoxic activity of the synthetic compounds was determined by means of an XTT Cell Proliferation Kit II (Roche Diagnostics, Mannheim, Germany) using the human diploid embryonic lung cell line MRC-5 [11]. The quinolone derivatives were tested at concentrations of 100, 60, 30 and 10 µM in triplicate and the percentage of viable cells at each concentration was determined by comparing with the control.

[3] = test system: M. smegmatis (ATCC 14468); assay: Microtiter broth dilution MIC against M. smegmatis (ATCC 14468); type: cell-based; conditions: Mycolicibacterium smegmatis, ATCC14468, 72 h, 37 °C, MTT
[4] = target: T1, M. tuberculosis MurE ligase; assay: M. tuberculosis MurE inhibition assay (phosphate colorimetric detection); type: biochemical; conditions: tested at 1000, 300, 100 and 30 µM; IC50 from plot of percent inhibition vs. concentration; read-out: IC50 Mtb MurE
EMRSA-15 and -16 = assay: Broth dilution MIC against epidemic MRSA strains; type: cell-based, S. aureus; conditions: Staphylococcus aureus, range over both strains and the compounds named
S. aureus EMRSA-15 = assay: Broth dilution MIC against EMRSA-15; type: cell-based; conditions: Staphylococcus aureus, EMRSA15, 18 h
[5] = test system: M. bovis BCG (ATCC 35734); assay: microbe, parasite or virus in culture; type: cell-based; conditions: Mycobacterium tuberculosis variant bovis BCG, 336 h, read-out: MIC M. bovis BCG
M. fortuitum (ATCC 6841) = assay: Broth dilution MIC against M. fortuitum; type: cell-based; conditions: Mycolicibacterium fortuitum, ATCC6841, 72 h
M. phlei (ATCC 11758) = assay: Broth dilution MIC against M. phlei; type: cell-based; conditions: Mycolicibacterium phlei, ATCC11758, 72 h
S. aureus EMRSA-16 = assay: Broth dilution MIC against EMRSA-16; type: cell-based; conditions: Staphylococcus aureus, EMRSA16, 18 h
M. smegmatis mc^2155 = assay: Broth dilution MIC against M. smegmatis mc^2155; type: cell-based; conditions: Mycolicibacterium smegmatis, 72 h

With `CCCCCCCC/C=C\CCCCc1cc(=O)c2ccccc2n1C` [1-Methyl-2-[(5Z)-tetradecenyl]-4(1H)-quinolone] as the compound, how does the IC50 [1] read?
The IC50 was 36 µM.

With `CCCCCCCCC#CCCc1cc(=O)c2ccccc2n1CCC` [Compound 8l, 1-(n-Propyl)-2-(3'-dodecynyl)-4(1H)-quinolone] as the compound, how does the “Metabolic active MRC-5 cells (%)” value ([2]; 10 µM) read?
The value was 100 ± 0.31%.

And the “Metabolic active MRC-5 cells (%)” value ([2]; 30 µM)?
Its value is 99.1 ± 2.32%.

What about the “Metabolic active MRC-5 cells (%)” value ([2]; 60 µM) of the same compound?
The value was 69.1 ± 8.04%.

And the “Metabolic active MRC-5 cells (%)” value ([2]; 100 µM)?
Its value is 9.0 ± 6.85%.

And the MIC [3]?
The MIC was 1 µg/mL and 2.8 µM.

And the IC50 [4]?
Its IC50 is 263 µM.

And the MIC (EMRSA-15 and -16)?
The MIC was 2 µg/mL to 8 µg/mL and 5.5 µM to 22.8 µM.

And the MIC (S. aureus EMRSA-15)?
The MIC was 2 µg/mL and 5.7 µM.

What about the MIC [5] of the same compound?
The MIC was 25 µg/mL and 71.2 µM.

What about the MIC (M. fortuitum (ATCC 6841)) of the same compound?
Its MIC is 2 µg/mL and 5.7 µM.

And the MIC (M. phlei (ATCC 11758))?
Its MIC is 4 µg/mL and 11.4 µM.

What about the MIC (S. aureus EMRSA-16) of the same compound?
The MIC was 8 µg/mL and 22.8 µM.

With `CCCCCCCCC#CCCc1cc(=O)c2ccccc2n1CCCC` [Compound 8m, 1-(n-Butyl)-2-(3'-dodecynyl)-4(1H)-quinolone] as the compound, how does the MIC (M. smegmatis mc^2155) read?
The MIC was 2 µg/mL and 5.5 µM.

What about the “Metabolic active MRC-5 cells (%)” value ([2]; 10 µM) of the same compound?
Its value is 94.9 ± 3.18%.

And the “Metabolic active MRC-5 cells (%)” value ([2]; 30 µM)?
The value was 89.7 ± 2.46%.

What about the “Metabolic active MRC-5 cells (%)” value ([2]; 60 µM) of the same compound?
Its value is 67.5 ± 3.19%.

And the “Metabolic active MRC-5 cells (%)” value ([2]; 100 µM)?
Its value is 0.4 ± 0.02%.

What about the MIC [3] of the same compound?
Its MIC is 2 µg/mL and 5.5 µM.

And the IC50 [4]?
The IC50 was 235 µM.

And the MIC (EMRSA-15 and -16)?
Its MIC is 2 µg/mL to 8 µg/mL and 5.5 µM to 22.8 µM.

What about the MIC (S. aureus EMRSA-15) of the same compound?
Its MIC is 2 µg/mL and 5.5 µM.

And the MIC [5]?
Its MIC is 25 µg/mL and 68.5 µM.

What about the MIC (M. fortuitum (ATCC 6841)) of the same compound?
The MIC was 2 µg/mL and 5.5 µM.

And the MIC (M. phlei (ATCC 11758))?
The MIC was 4 µg/mL and 10.9 µM.

What about the MIC (S. aureus EMRSA-16) of the same compound?
The MIC was 4 µg/mL and 10.9 µM.

With `CCCCCCCCCCC#Cc1cc(=O)c2ccccc2n1C` [Compound 8n, 1-Methyl-2-(1'-dodecynyl)-4(1H)-quinolone] as the compound, how does the MIC (M. smegmatis mc^2155) read?
The MIC was 1 µg/mL and 3.1 µM.

And the “Metabolic active MRC-5 cells (%)” value ([2]; 10 µM)?
The value was 101 ± 0.85%.

What about the “Metabolic active MRC-5 cells (%)” value ([2]; 30 µM) of the same compound?
Its value is 100 ± 0.72%.

What about the “Metabolic active MRC-5 cells (%)” value ([2]; 60 µM) of the same compound?
The value was 100 ± 0.81%.

And the “Metabolic active MRC-5 cells (%)” value ([2]; 100 µM)?
Its value is 100 ± 0.82%.

And the “toxicity to MRC-5 cell line (in words)” value [2]?
Its value is “devoid of toxicity”.

And the MIC [3]?
The MIC was 0.5 µg/mL (≈ 1.55 µM).

And the IC50 [4]?
The IC50 was 251 µM.

And the MIC (EMRSA-15 and -16)?
Its MIC is 2 µg/mL to 8 µg/mL and 5.5 µM to 22.8 µM.

What about the MIC (S. aureus EMRSA-15) of the same compound?
The MIC was 2 µg/mL and 6.2 µM.

And the MIC [5]?
The MIC was 25 µg/mL and 77.4 µM.

And the MIC (M. fortuitum (ATCC 6841))?
Its MIC is 0.5 µg/mL and 1.5 µM.

And the MIC (M. phlei (ATCC 11758))?
The MIC was 1 µg/mL and 3.1 µM.

And the MIC (S. aureus EMRSA-16)?
The MIC was 4 µg/mL and 12.4 µM.

What does the source list for `CCCCCCCCCCC#CCCc1cc(=O)c2ccccc2n1C` [Compound 8o, 1-Methyl-2-(3'-tetradecynyl)-4(1H)-quinolone]?
MIC (M. smegmatis mc^2155): 1 µg/mL and 2.8 µM; Metabolic active MRC-5 cells (%) ([2]; 10 µM): 100 ± 0.73%; Metabolic active MRC-5 cells (%) ([2]; 30 µM): 97.9 ± 0.88%; Metabolic active MRC-5 cells (%) ([2]; 60 µM): 95.8 ± 2.54%; Metabolic active MRC-5 cells (%) ([2]; 100 µM): 90.7 ± 3.48%; MIC [3]: 2 µg/mL and 5.7 µM; IC50 [4]: 774 µM; MIC (S. aureus EMRSA-15): 8 µg/mL and 22.8 µM; MIC [5]: 25 µg/mL and 71.2 µM; MIC (M. fortuitum (ATCC 6841)): 2 µg/mL and 5.7 µM; melting point: 43 to 45 °C; MIC (M. phlei (ATCC 11758)): 2 µg/mL and 5.7 µM; MIC (S. aureus EMRSA-16): 8 µg/mL and 22.8 µM

With `CCCCCCCCCCC#CCCc1cc(=O)c2ccccc2n1CCC` [Compound 8q, 1-(n-Propyl)-2-(3'-tetradecynyl)-4(1H)-quinolone] as the compound, how does the MIC (M. smegmatis mc^2155) read?
Its MIC is 1 µg/mL and 2.6 µM.

And the “Metabolic active MRC-5 cells (%)” value ([2]; 10 µM)?
Its value is 92.7 ± 4.62%.

And the “Metabolic active MRC-5 cells (%)” value ([2]; 30 µM)?
The value was 67.9 ± 2.65%.

And the “Metabolic active MRC-5 cells (%)” value ([2]; 60 µM)?
The value was 19.8 ± 9.85%.

What about the “Metabolic active MRC-5 cells (%)” value ([2]; 100 µM) of the same compound?
The value was 0.2 ± 0.09%.

What about the MIC [3] of the same compound?
The MIC was 1 µg/mL and 2.6 µM.

What about the IC50 [4] of the same compound?
The IC50 was 200 µM.

What about the MIC (S. aureus EMRSA-15) of the same compound?
Its MIC is 2 µg/mL and 5.3 µM.

And the MIC [5]?
Its MIC is 25 µg/mL and 66 µM.

And the MIC (M. fortuitum (ATCC 6841))?
Its MIC is 2 µg/mL and 5.3 µM.

What about the MIC (M. phlei (ATCC 11758)) of the same compound?
Its MIC is 2 µg/mL and 5.3 µM.

And the MIC (S. aureus EMRSA-16)?
The MIC was 128 µg/mL and 338 µM.

For `CCCCCCCCCCCCC#Cc1cc(=O)c2ccccc2n1C` [Compound 8r, 1-Methyl-2-(1′-tetradecynyl)-4(1H)-quinolone], which MIC (M. smegmatis mc^2155) is on record?
The MIC was 1 µg/mL and 2.8 µM.

And the “Metabolic active MRC-5 cells (%)” value ([2]; 10 µM)?
Its value is 99.7 ± 2.03%.

What about the “Metabolic active MRC-5 cells (%)” value ([2]; 30 µM) of the same compound?
Its value is 98.1 ± 1.65%.

And the “Metabolic active MRC-5 cells (%)” value ([2]; 60 µM)?
The value was 97.1 ± 1.69%.

What about the “Metabolic active MRC-5 cells (%)” value ([2]; 100 µM) of the same compound?
The value was 95.7 ± 1.14%.

And the “toxicity to MRC-5 cell line (in words)” value [2]?
The value was “devoid of toxicity”.

What about the MIC [3] of the same compound?
The MIC was 0.5 µg/mL (≈ 1.42 µM).

What about the IC50 [4] of the same compound?
The IC50 was 631 µM.

What about the MIC (S. aureus EMRSA-15) of the same compound?
The MIC was 16 µg/mL and 45.6 µM.

What about the MIC [5] of the same compound?
The MIC was 25 µg/mL and 71.2 µM.

What about the MIC (M. fortuitum (ATCC 6841)) of the same compound?
Its MIC is 0.5 µg/mL and 1.5 µM.

And the melting point?
The melting point was 41 to 43 °C.

And the MIC (M. phlei (ATCC 11758))?
Its MIC is 2 µg/mL and 5.7 µM.

What about the MIC (S. aureus EMRSA-16) of the same compound?
The MIC was 128 µg/mL and 365 µM.
